SMILES strings stand for the structures.

Data set [1] in a line: transmission chromaticity and excitation purity of dye aqueous solution under standard illuminant D65. It is filed as physicochemical. As to the method:
Here the excitation purity is obtained in such a manner that the chromaticity coordinates N of standard illuminant and the chromaticity coordinates C of the obtained dye in the chromaticity diagram are connected with a straight line, and the wavelength corresponding to the intersection point of the extension of the straight line and the spectrum locus is taken as the dominant wavelength, and the excitation purity is calculated from the proportion at the respective points. The chromaticity coordinate C can be obtained in such a manner that the dye is added to water to obtain a dye aqueous solution, the visible light transmittance of the aqueous solution is measured by a spectrophotometer, and the chromaticities x and y in the CIE 1964 supplementary standard […] system under standard illuminant D65 are calculated.
The excitation purity of the dye in the present invention means one measured and calculated with respect to the dye aqueous solution obtained by adding the dye to water and the excitation purity of the anisotropic dye film means one measured and calculated with respect to a film formed by applying a composition for an anisotropic dye film described hereinafter in detail to a substrate. […]

Data set [2] can be described thus: degree of polarization of anisotropic dye film formed by wet system film-forming method. In kind it is physicochemical. The source says:
In the following Examples, the degree of polarization was obtained by measuring the transmittance of an anisotropic dye film by a spectrophotometer having an iodine type polarizing element disposed in an incident optical system, followed by calculation in accordance with the following formula: Degree of polarization (P %)={(Ty−Tz)/(Ty+Tz)}×100
Tz: transmittance of a dye film for a polarized light in the absorption axis direction
Ty: transmittance of a dye film for a polarized light in the polarization axis direction
On the other hand, as a substrate, a glass substrate having a polyimide oriented film formed thereon by silk printing (75 mm×25 mm, thickness 1.1 mm, the polyimide oriented film with a polyimide film thickness of about 800 Å preliminarily subjected to rubbing treatment with cotton cloth) was prepared. […]
The transmittance (Tz) of the obtained anisotropic dye film for a polarized light having a plane of vibration in the absorption axis direction in the plane of the dye film and the transmittance (Ty) for a polarized light having a plane of vibration in the polarization axis direction in the plane of the dye film were measured and shown in FIG. 1. […]

With `COc1cc(N=Nc2c(S(=O)(=O)O)cc3ccc(N=Nc4cc(S(=O)(=O)O)c(N)cc4N)cc3c2O)c(OC)cc1N=Nc1ccc(OC)c(S(=O)(=O)O)c1` [dye No. (1-1)], in data set [1] (C.I.E. chromaticity diagram, 10% (or 5 wt %), 1,000 ppm and 10 ppm), the “trail of the chromaticity of the aqueous solution at the respective dye concentrations” value is on record as “passed near the chromaticity (w) of standard illuminant D65”. The “excitation purity (pe)” value in data set [1] (dye aqueous solution at a concentration of 10%, optical path length 0.01 mm, D65) was 17%. The “degree of polarization (P %) (light absorption anisotropy)” value in data set [2] (spin coated on rubbed polyimide/glass, from about 500 nm to about 650 nm) was “at least 80%”. For the same compound, the “degree of polarization (P %)” value in data set [2] (vicinity of maximum absorption wavelength, from 550 nm to 600 nm) is “at least 90%”.
